Test results: PMC2099433, “The binding site for neohesperidin dihydrochalcone at the human sweet taste receptor” (BMC Structural Biology, 2007)
Changes are numbered by the printed parent chain. Where a SMILES comes first, the peptide text is derived from it.

Assays:
[1] = target: T1, hTAS1R2 + hTAS1R3 H721A^ex2 (Homo sapiens, UniProt Q7RTX0+Q8TE23, H721A); assay: Calcium response (FLIPR), hTAS1R3 mutant coexpressed with hTAS1R2; type: cell-based; conditions: variant H721A^ex2; for Emax: read-out: maximal signal (% of wt)
T1 construct: expressed in transfected cells; host or cells: HEK293T cells stably expressing G16Gust44
T1 sequence (Q8TE23 20-839): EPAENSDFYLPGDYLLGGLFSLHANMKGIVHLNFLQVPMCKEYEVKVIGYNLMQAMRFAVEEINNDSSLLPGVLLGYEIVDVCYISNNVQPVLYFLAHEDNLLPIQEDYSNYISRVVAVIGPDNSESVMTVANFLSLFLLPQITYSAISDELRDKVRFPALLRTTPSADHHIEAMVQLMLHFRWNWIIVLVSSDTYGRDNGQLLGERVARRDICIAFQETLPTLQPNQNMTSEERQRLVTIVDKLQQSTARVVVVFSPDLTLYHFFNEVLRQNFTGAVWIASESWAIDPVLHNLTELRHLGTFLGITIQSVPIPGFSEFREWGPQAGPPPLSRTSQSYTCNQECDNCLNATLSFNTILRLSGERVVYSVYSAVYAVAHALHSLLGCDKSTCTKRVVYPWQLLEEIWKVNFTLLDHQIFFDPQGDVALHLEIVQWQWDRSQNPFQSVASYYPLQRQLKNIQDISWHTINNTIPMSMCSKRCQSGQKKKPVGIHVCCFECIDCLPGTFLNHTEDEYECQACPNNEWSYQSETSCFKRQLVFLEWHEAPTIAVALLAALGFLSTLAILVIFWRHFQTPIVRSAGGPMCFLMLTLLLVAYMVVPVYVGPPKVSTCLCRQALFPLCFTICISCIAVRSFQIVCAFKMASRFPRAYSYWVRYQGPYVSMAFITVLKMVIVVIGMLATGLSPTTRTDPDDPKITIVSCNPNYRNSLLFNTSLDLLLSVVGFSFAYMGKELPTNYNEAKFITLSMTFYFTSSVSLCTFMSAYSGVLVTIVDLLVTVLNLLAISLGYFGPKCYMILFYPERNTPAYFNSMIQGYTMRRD
T1 sequence (Q7RTX0 21-852 H721A): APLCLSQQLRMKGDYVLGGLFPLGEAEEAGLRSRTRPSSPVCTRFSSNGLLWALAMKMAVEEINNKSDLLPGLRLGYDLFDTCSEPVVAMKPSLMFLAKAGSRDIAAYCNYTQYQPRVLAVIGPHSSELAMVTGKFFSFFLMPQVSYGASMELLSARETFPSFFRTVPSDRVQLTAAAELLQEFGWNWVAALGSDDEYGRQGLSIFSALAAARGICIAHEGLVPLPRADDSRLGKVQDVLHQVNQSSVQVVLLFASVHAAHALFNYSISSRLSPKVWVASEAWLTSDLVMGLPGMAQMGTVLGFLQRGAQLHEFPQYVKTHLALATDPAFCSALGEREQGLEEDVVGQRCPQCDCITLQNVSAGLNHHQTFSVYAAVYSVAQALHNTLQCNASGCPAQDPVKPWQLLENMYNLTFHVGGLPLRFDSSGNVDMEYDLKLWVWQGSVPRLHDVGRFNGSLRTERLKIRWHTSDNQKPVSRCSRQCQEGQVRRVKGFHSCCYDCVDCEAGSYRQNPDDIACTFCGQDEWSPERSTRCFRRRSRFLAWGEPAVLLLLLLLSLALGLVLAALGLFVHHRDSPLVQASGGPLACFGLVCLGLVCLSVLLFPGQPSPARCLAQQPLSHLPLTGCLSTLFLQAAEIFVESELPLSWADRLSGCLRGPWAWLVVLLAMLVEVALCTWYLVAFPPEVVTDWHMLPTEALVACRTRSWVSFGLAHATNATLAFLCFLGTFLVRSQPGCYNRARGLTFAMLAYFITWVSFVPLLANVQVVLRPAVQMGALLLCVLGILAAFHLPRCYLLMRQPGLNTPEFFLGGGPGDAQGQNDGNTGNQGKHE
Method in brief: (§1)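 HEK293T cells stably expressing chimeric G16Gust44 were transiently transfected with C-terminally HSV-tagged hTAS1R2 and mutant hTAS1R3, then loaded 24 h later with Fluo4-AM for 1 h. Calcium mobilization after sweet-tastant application was read by FLIPR, mock-corrected and expressed as ΔF/F.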

[2] = target: T2, hTAS1R2 + hTAS1R3 S620A^2.57 (Homo sapiens, UniProt Q7RTX0+Q8TE23, S620A); assay: as above; type: cell-based; conditions: variant S620A^2.57; for Emax: read-out: maximal signal (% of wt)
T2 construct: expressed in transfected cells; host or cells: HEK293T cells stably expressing G16Gust44
T2 sequence (Q8TE23 20-839): T1 sequence (Q8TE23 20-839)
T2 sequence (Q7RTX0 21-852 S620A): T1 sequence (Q7RTX0 21-852 H721A) with S600A, A701H
Method in brief: as §1

EC50 [1] [mM]	Emax [1] [%]	EC50 [2] [mM]	Emax [2] [%]	SMILES
1.6 ± 0.3	60 ± 40	1.2 ± 0.3	64 ± 4	COC(=O)[C@H](Cc1ccccc1)NC(=O)[C@@H](N)CC(=O)O [aspartame] (HELM PEPTIDE1{D.F.[CO[*:1]]}$$$$V2.0)
0.8 ± 0.3	66 ± 10	1.3 ± 0.5	55 ± 80	COc1ccc(CCC(=O)c2c(O)cc(O[C@@H]3O[C@H](CO)[C@@H](O)[C@H](O)[C@H]3O[C@@H]3O[C@@H](C)[C@H](O)[C@@H](O)[C@H]3O)cc2O)cc1O [NHDC, neohesperidin dihydrochalcone]
